From US5026848A, “Novel generation of heteroaryloxyalkyl heterocycles with antipicornaviruses activities” (Synphar Laboratories Incorporated, priority 1988, dated 1991)
≈ marks a conversion by molar mass, not a printed value. Like-named read-outs stand apart in the source and are kept apart here.

What was measured:
Rhinovirus 17 = test: Anti-rhinovirus activity, cytopathic effect inhibition / neutral red dye uptake, type 17; assay type: cell-based; details: Enterovirus, WI-38; Table II; read-out: MIC 50 Rhinovirus Type 17
Rhinovirus 1A = test: Anti-rhinovirus activity, cytopathic effect inhibition / neutral red dye uptake, type 1A; assay type: cell-based; details: Enterovirus, WI-38
WI38 cells = test: Toxicity to WI38 cells (change in morphology in / growth inhibition of 25% of the cells); assay type: cell-based
Rhinovirus 53 = test: Anti-rhinovirus activity, cytopathic effect inhibition / neutral red dye uptake, type 53; assay type: cell-based; details: Enterovirus, WI-38; Table II; read-out: MIC 50 Rhinovirus Type 53
Rhinovirus 49 = test: Anti-rhinovirus activity, cytopathic effect inhibition / neutral red dye uptake, type 49; assay type: cell-based; details: Enterovirus, WI-38; Table II; read-out: MIC 50 Rhinovirus Type 49
Rhinovirus 31 = test: Anti-rhinovirus activity, cytopathic effect inhibition / neutral red dye uptake, type 31; assay type: cell-based; details: Enterovirus, WI-38; Table II; one of seven commonest serotypes; read-out: MIC 50 Rhinovirus Type 31
Rhinovirus 15 = test: Anti-rhinovirus activity, cytopathic effect inhibition / neutral red dye uptake, type 15; assay type: cell-based; details: Enterovirus, WI-38; Table II; one of seven commonest serotypes; read-out: MIC 50 Rhinovirus Type 15
Rhinovirus 4 = test: Anti-rhinovirus activity, cytopathic effect inhibition / neutral red dye uptake, type 4; assay type: cell-based; details: Enterovirus, WI-38; Table II; one of seven commonest serotypes; read-out: MIC 50 Rhinovirus Type 4
Rhinovirus 56 = test: Anti-rhinovirus activity, cytopathic effect inhibition / neutral red dye uptake, type 56; assay type: cell-based; details: Enterovirus, WI-38; Table II; read-out: MIC 50 Rhinovirus Type 56
HRV-1A and HRV-39 = test: Anti-rhinovirus activity against HRV-1A and HRV-39; details: in words
Rhinovirus 88 = test: Anti-rhinovirus activity, cytopathic effect inhibition / neutral red dye uptake, type 88; assay type: cell-based; details: Enterovirus, WI-38; Table II; read-out: MIC 50 Rhinovirus Type 88
Rhinovirus 23 = test: Anti-rhinovirus activity, cytopathic effect inhibition / neutral red dye uptake, type 23; assay type: cell-based; details: Enterovirus, WI-38; Table II; read-out: MIC 50 Rhinovirus Type 23
Rhinovirus 44 = test: Anti-rhinovirus activity, cytopathic effect inhibition / neutral red dye uptake, type 44; assay type: cell-based; details: Enterovirus, WI-38; Table II; read-out: MIC 50 Rhinovirus Type 44
Enterovirus serotypes = assay type: cell-based; details: for All Enterovirus Serotypes (number of serotypes active / tested): Table III, numerator, denominator 7, but 5 for compound 8
Rhinovirus 2 = test: Anti-rhinovirus activity, cytopathic effect inhibition / neutral red dye uptake, type 2; assay type: cell-based; details: Enterovirus, WI-38; Table II; one of seven commonest serotypes; read-out: MIC 50 Rhinovirus Type 2
Coxsacki-B4 = test: Activity against other picornaviruses, Coxsacki-B4; assay type: cell-based; details: Enterovirus, read-out: MIC 50 Cox. B4
Echo-7 = test: Activity against other picornaviruses, Echo-7; assay type: cell-based; details: Enterovirus, read-out: MIC 50 Echo 7
Rhinovirus 1B = test: Anti-rhinovirus activity, cytopathic effect inhibition / neutral red dye uptake, type 1B; assay type: cell-based; details: Enterovirus, WI-38; Table II; one of seven commonest serotypes; read-out: MIC 50 Rhinovirus Type 1B
Coxsacki-B1 = test: Activity against other picornaviruses, Coxsacki-B1; assay type: cell-based; details: Enterovirus, read-out: MIC 50 Cox. B1
Rhinovirus 30 = test: Anti-rhinovirus activity, cytopathic effect inhibition / neutral red dye uptake, type 30; assay type: cell-based; details: Enterovirus, WI-38; Table II; read-out: MIC 50 Rhinovirus Type 30
Echo-11 = test: Activity against other picornaviruses, Echo-11; assay type: cell-based; details: Enterovirus, read-out: MIC 50 Echo 11
Rhinovirus 36 = test: Anti-rhinovirus activity, cytopathic effect inhibition / neutral red dye uptake, type 36; assay type: cell-based; details: Enterovirus, WI-38; Table II; read-out: MIC 50 Rhinovirus Type 36
Rhinovirus 63 = test: Anti-rhinovirus activity, cytopathic effect inhibition / neutral red dye uptake, type 63; assay type: cell-based; details: Enterovirus, WI-38; Table II; read-out: MIC 50 Rhinovirus Type 63
Polio 1 = test: microbe, parasite or virus in culture; assay type: cell-based; details: Enterovirus, read-out: MIC 50 Polio 1
Coxsacki-A21 = test: Activity against other picornaviruses, Coxsacki-A21; assay type: cell-based; details: Enterovirus, read-out: MIC 50 Cox. A21
Rhinovirus 86 = test: Anti-rhinovirus activity, cytopathic effect inhibition / neutral red dye uptake, type 86; assay type: cell-based; details: Enterovirus, WI-38; Table II; read-out: MIC 50 Rhinovirus Type 86
Rhinovirus 32 = test: Anti-rhinovirus activity, cytopathic effect inhibition / neutral red dye uptake, type 32; assay type: cell-based; details: Enterovirus, WI-38; Table II; read-out: MIC 50 Rhinovirus Type 32
Rhinovirus 29 = test: Anti-rhinovirus activity, cytopathic effect inhibition / neutral red dye uptake, type 29; assay type: cell-based; details: Enterovirus, WI-38; Table II; one of seven commonest serotypes; read-out: MIC 50 Rhinovirus Type 29
Rhinovirus 39 = test: Anti-rhinovirus activity, cytopathic effect inhibition / neutral red dye uptake, type 39; assay type: cell-based; details: Enterovirus, WI-38; Table I; WI38 cells, 33° C., 3-4 days; read-out: MIC50 Rhinovirus 39
Coxsacki-A9 = test: Activity against other picornaviruses, Coxsacki-A9; assay type: cell-based; details: Enterovirus, read-out: MIC 50 Cox. A9
[1] = system: 20 serotypes of rhinovirus; test: Anti-rhinovirus activity against a panel of 20 serotypes; details: Table II; numerator; denominator 20, but 10 for compound 8 and 6 for compound 30
[2] = Table I, WI38 cells, 33° C., 3-4 days, NA = Not active, read-out: MIC50 Rhinovirus 1A
[3] = Table I, concentration with change in morphology in 25% of WI38 cells

| SMILES | IC50 (Rhinovirus 17) | EC50 (Rhinovirus 1A; [2]) | Toxicity (WI38 cells; [3]) | Toxicity (WI38 cells; Table II) | Toxicity (WI38 cells; Table III) | EC50 (Rhinovirus 53) | EC50 (Rhinovirus 49) | EC50 (Rhinovirus 31) | IC50 (Rhinovirus 15) | IC50 (Rhinovirus 4) | EC50 (Rhinovirus 56) | EC50 (Rhinovirus 88) | IC50 (Rhinovirus 23) | EC50 (Rhinovirus 44) | All Enterovirus Serotypes (number of serotypes active / tested) (Enterovirus serotypes) | IC50 (Rhinovirus 2) | IC50 (Coxsacki-B4) | IC50 (Echo-7) | IC50 (Rhinovirus 1B) | IC50 (Coxsacki-B1) | also measured |
| --- | --- | --- | --- | --- | --- | --- | --- | --- | --- | --- | --- | --- | --- | --- | --- | --- | --- | --- | --- | --- | --- |
| Cc1cnsc1CCCCCCOc1ccc2oc3ccccc3c2c1 [Compound 19] | > 25 mg/L | 10 mg/L (≈ 27.4 µM) | 50 µg/mL | 50 µg/mL | 50 µg/mL | 10 mg/L (≈ 27.4 µM) | > 25 mg/L | > 25 mg/L | 10 mg/L (≈ 27.4 µM) | > 25 mg/L | 10 mg/L (≈ 27.4 µM) | 1 mg/L (≈ 2.74 µM) | 10 mg/L (≈ 27.4 µM) | < 0.5 mg/L | 4 | 10 mg/L (≈ 27.4 µM) | > 25 mg/L | 25 mg/L (≈ 68.4 µM) | 5 mg/L (≈ 13.7 µM) | 5 mg/L (≈ 13.7 µM) | inhibitory activity against HRV-1A and HRV-39 in vitro (HRV-1A and HRV-39): remarkably inhibitory activity; inhibitory activity against the members of the Entero virus family (Enterovirus serotypes): remarkable inhibitory activity; IC50 (Rhinovirus 30): 0.5 mg/L (≈ 1.37 µM); IC50 (Echo-11): > 25 mg/L; EC50 (Rhinovirus 36): > 25 mg/L; EC50 (Rhinovirus 63): 10 mg/L (≈ 27.4 µM); EC50 (Polio 1): > 25 mg/L; IC50 (Coxsacki-A21): 10 mg/L (≈ 27.4 µM); EC50 (Rhinovirus 86): 10 mg/L (≈ 27.4 µM); EC50 (Rhinovirus 32): > 25 mg/L; IC50 (Rhinovirus 29): 10 mg/L (≈ 27.4 µM); EC50 (Rhinovirus 39): 5 mg/L (≈ 13.7 µM); EC50 (Coxsacki-A9): 10 mg/L (≈ 27.4 µM); All Rhinovirus Serotypes (number of serotypes active / tested) [1]: 14 |
| Cc1csc(CCCCCCOc2ccc3oc4ccccc4c3c2)n1 [Compound 27] | 10 mg/L (≈ 27.4 µM) | 10 mg/L (≈ 27.4 µM) | 50 µg/mL | 50 µg/mL | 50 µg/mL | 10 mg/L (≈ 27.4 µM) | > 25 mg/L | 10 mg/L (≈ 27.4 µM) | 10 mg/L (≈ 27.4 µM) | 25 mg/L (≈ 68.4 µM) | 5 mg/L (≈ 13.7 µM) | > 25 mg/L | 5 mg/L (≈ 13.7 µM) | 10 mg/L (≈ 27.4 µM) | 3 | > 25 mg/L | > 25 mg/L | > 25 mg/L | 5 mg/L (≈ 13.7 µM) | 10 mg/L (≈ 27.4 µM) | inhibitory activity against the members of the Entero virus family (Enterovirus serotypes): remarkable inhibitory activity; IC50 (Rhinovirus 30): 10 mg/L (≈ 27.4 µM); IC50 (Echo-11): > 25 mg/L; EC50 (Rhinovirus 36): > 25 mg/L; EC50 (Rhinovirus 63): 25 mg/L (≈ 68.4 µM); EC50 (Polio 1): > 25 mg/L; IC50 (Coxsacki-A21): 10 mg/L (≈ 27.4 µM); EC50 (Rhinovirus 86): 1 mg/L (≈ 2.74 µM); EC50 (Rhinovirus 32): 10 mg/L (≈ 27.4 µM); IC50 (Rhinovirus 29): 25 mg/L (≈ 68.4 µM); EC50 (Rhinovirus 39): 10 mg/L (≈ 27.4 µM); EC50 (Coxsacki-A9): 5 mg/L (≈ 13.7 µM); All Rhinovirus Serotypes (number of serotypes active / tested) [1]: 17 |
| Cc1cc(CCCCCCCOc2ccc(C3=NCCO3)cc2)on1 [Disoxaril, reference compound] | < 0.5 mg/L | 10 mg/L (≈ 29.2 µM) | 50 µg/mL | 50 µg/mL | 50 µg/mL | 25 mg/L (≈ 73 µM) | > 25 mg/L | 25 mg/L (≈ 73 µM) | 5 mg/L (≈ 14.6 µM) | 0.5 mg/L (≈ 1.46 µM) | 25 mg/L (≈ 73 µM) | < 0.5 mg/L | 10 mg/L (≈ 29.2 µM) | < 0.5 mg/L | 7 | > 25 mg/L | 10 mg/L (≈ 29.2 µM) | 5 mg/L (≈ 14.6 µM) | 25 mg/L (≈ 73 µM) | 10 mg/L (≈ 29.2 µM) | EC50 (Rhinovirus 1A; Table II, one of seven commonest serotypes, read-out: MIC 50 Rhinovirus Type 1A): 25 mg/L (≈ 73 µM); IC50 (Rhinovirus 30): 0.5 mg/L (≈ 1.46 µM); IC50 (Echo-11): 5 mg/L (≈ 14.6 µM); EC50 (Rhinovirus 36): > 25 mg/L; EC50 (Rhinovirus 63): 25 mg/L (≈ 73 µM); EC50 (Polio 1): 5 mg/L (≈ 14.6 µM); IC50 (Coxsacki-A21): 5 mg/L (≈ 14.6 µM); EC50 (Rhinovirus 86): 0.5 mg/L (≈ 1.46 µM); EC50 (Rhinovirus 32): 10 mg/L (≈ 29.2 µM); IC50 (Rhinovirus 29): 10 mg/L (≈ 29.2 µM); EC50 (Rhinovirus 39): 5 mg/L (≈ 14.6 µM); EC50 (Coxsacki-A9): 5 mg/L (≈ 14.6 µM); All Rhinovirus Serotypes (number of serotypes active / tested) [1]: 17 |
